Laboratory results taken from patent publication US20090105301A1, “9A-SUBSTITUTED AZALIDES FOR THE TREATMENT OF MALARIA” (priority 2006, published 2009).
Values after ≈ are worked out from the molar mass of the structure shown. Counter-ions that a name gives are not always drawn.

Tests used:
Format in all cases: cell-based, Plasmodium falciparum
P. falciparum TM91C235 = test: In vitro screening protocol I, [3H]-hypoxanthine incorporation, TM91C235; settings: In vitro screening protocol I, P. falciparum TM91C235; for IC50: Plasmodium falciparum, read-out: IC50 TM91C235
Source text: (§1) Agents Chemother. 27 (4) (1985) 525-530). The system was limited to the assessment of the intrinsic activity against the erythrocytic asexual life cycle (blood schizontocides). Two Plasmodium falciparum clones from CDC/Indochina III (W-2) and CDC/Sierra Leone I (D-6) (Oduola A M, Weatherly N F, Bowdre J H, Desjardins R E. Plasmodium falciparum: cloning by single-erythrocyte micromanipulation and heterogeneity in vitro. Exp Parasitol. 66 (1) (1988) 86-95) were used for all assays. TM91C235, a multiple drug resistant isolate from Thailand (Antimicrob. Agents Chemother. 46 (8) (2002) 2627 and Antimicrob. Agents Chemother. 43 (3) (1999) 598-602), was used for the prescreening assay. W-2 is resistant to chloroquine, quinine, and pyrimethamine and susceptible to mefloquine. D-6 tends to be more resistant to mefloquine and susceptible to chloroquine, quinine, and pyrimethamine. All documents cited in this paragraph are incorporated by reference in their entirety.
(§2) All parasites were maintained in continuous long term cultures in RPMI-1640 medium supplemented with 6% washed human A positive (A+)(erythrocytes, 25 mM Hepes, […], and 10% heat inactivated A+ human plasma or ALBUMAX® (lipid-rich bovine serum albumin; Invitrogen, Carlsbad, Calif.). All cultures and assays were conducted at 37° C. under an atmosphere of 5% CO2 and 5% O2, with a balance of N2.
(§3) The prescreening assay uses TM91C235 diluted at a 0.4% parasitemia in a 1% hematocrit in folic acid free and p-aminobenzoic acid free media RPMI-1640 and ALBUMAX®. […] The compound is further diluted in folate free (FF) culture medium with ALBUMAX® for the first initial starting concentration. The rest of the stock drug solution was kept at −70° C. The isolate was preexposed, in duplicate, at three concentrations (25,000 ng/ml, 2,500 ng/ml, and […]) of the test compound for 48 hr in a 96-well microtiter plate (MTP) using the BIOMEK® 2000 automated laboratory workstation. Each MTP contains chloroquine as control to assess the relative activity of the compound and to monitor the response of TM91C235.
(§4) After the preincubation, [^3H]-hypoxanthine was added to each well of the MTP. (The assay relies on the incorporation of radiolabeled hypoxanthine by the parasites, which indicates reproduction, and inhibition of isotope incorporation was attributed to activity of known or candidate antimalarial drugs). After 72 hours of total incubation time, the MTP were frozen to lyse the erythrocytes and parasites. The parasite DNA was recovered by harvesting the lysate onto glass-fiber filter plates using a Packard FilterMate™ Cell Harvester. The radioactivity was counted on a Packard TopCount™ microplate scintillation counter.
(§5) The serial dilution assay was conducted using the same assay conditions and stock solution of the compound used for the preliminary screen, described above. Both the D-6 and the W-2 clones were used. The compounds were diluted two-fold over 11 different concentration ranges with a starting concentration that was based on the preliminary screen. For each drug, the concentration response profile was determined and 50% inhibitory concentrations (IC50) were determined by using a non-linear, logistic dose response analysis program. […] For each assay, the IC50 for each clone was determined against the known antimalarials chloroquine and mefloquine. These control values established the compound's relative parasite susceptibility profile compared to known antimalarials. […]

[1] = test system: P. falciparum W2 (CDC/Indochina III, W-2); test: In vitro screening protocol I, [3H]-hypoxanthine incorporation, W2; settings: In vitro screening protocol I, P. falciparum W2; for IC50: Plasmodium falciparum, read-out: IC50 W2
Source text: as §1, §2, §3, §4, §5

[2] = test system: P. falciparum D6 (CDC/Sierra Leone I, D-6); test: In vitro screening protocol I, [3H]-hypoxanthine incorporation, D6; settings: In vitro screening protocol I, P. falciparum D6; for IC50: Plasmodium falciparum, read-out: IC50 D6
Source text: as §1, §2, §3, §4, §5

| SMILES | IC50 (P. falciparum TM91C235) [µg/mL] | IC50 [1] [µg/mL] | IC50 [2] [µg/mL] | IC50 TM91C235 (P. falciparum TM91C235) | IC50 W2 [1] | IC50 D6 [2] |
| --- | --- | --- | --- | --- | --- | --- |
| CC[C@H]1OC(=O)[C@H](C)[C@@H](O)[C@H](C)[C@@H](O[C@@H]2O[C@H](C)C[C@H](N(C)C)[C@H]2O)[C@](C)(O)C[C@@H](C)CN(CCCNCc2ccncc2)[C@H](C)[C@@H](O)[C@]1(C)O [Example 11, 9a-{3-[(Pyridine-4-yl-methyl)amino]propyl}-3-O-decladinosyl-9-deoxo-9-dihydro-9a-aza-9a-homoerythromycin A] |  |  |  | F (2800 < X ≦ 3500) | C (200 < X ≦ 1000) | G (3500 < X ≦ 5000) |
| CC[C@H]1OC(=O)[C@H](C)[C@@H](O)[C@H](C)[C@@H](O[C@@H]2O[C@H](C)C[C@H](N(C)C)[C@H]2O)[C@](C)(O)C[C@@H](C)CN(CCCNCc2cnc3ccccc3c2)[C@H](C)[C@@H](O)[C@]1(C)O [Example 5, 9a-{3-[(Quinolin-3-yl-methyl)amino]propyl}-3-O-decladinosyl-9-deoxo-9-dihydro-9a-aza-9a-homoerythromycin A] | 0.1 to 0.2 (≈ 0.129 to 0.258 µM) | 0.1 to 0.2 (≈ 0.129 to 0.258 µM) | 0.2 to 1 (≈ 0.258 to 1.29 µM) |  |  |  |
| CC[C@H]1OC(=O)[C@H](C)[C@@H](O)[C@H](C)[C@@H](O[C@@H]2O[C@H](C)C[C@H](N(C)C)[C@H]2O)[C@](C)(O)C[C@@H](C)CN(CCCNc2ccnc3cc(Cl)ccc23)[C@H](C)[C@@H](O)[C@]1(C)O [Example 23] | < 0.1 | < 0.1 | < 0.1 |  |  |  |
| CC[C@H]1OC(=O)[C@H](C)[C@@H](O[C@H]2C[C@@](C)(OC)[C@@H](O)[C@H](C)O2)[C@H](C)[C@@H](O[C@@H]2O[C@H](C)C[C@H](NC)[C@H]2O)[C@](C)(O)C[C@@H](C)CN(CCCNc2ccnc3cc(Cl)ccc23)[C@H](C)[C@@H](O)[C@]1(C)O [Example 21B, 9a-{3-[(7-Chloro-quinolin-4-yl)amino]propyl}-3′N-demethyl-9-deoxo-9-dihydro-9a-aza-9a-homoerythromycin A] | < 0.1 | 0.1 to 0.2 (≈ 0.106 to 0.213 µM) | 0.1 to 0.2 (≈ 0.106 to 0.213 µM) |  |  |  |
| CC[C@H]1OC(=O)[C@H](C)[C@@H](O)[C@H](C)[C@@H](O)[C@](C)(O)C[C@@H](C)CN(CCCNCc2ccc3ccccc3n2)[C@H](C)[C@@H](O)[C@]1(C)O [Example 3, 9a-{3-[(Quinolin-2-yl-methyl)amino]propyl}-3-O-decladinosyl-5-O-dedesosaminyl-9-deoxo-9-dihydro-9a-aza-9a-homoerythromycin A] | 1 to 2.5 (≈ 1.62 to 4.05 µM) | 0.2 to 1 (≈ 0.324 to 1.62 µM) | 3.5 to 5 (≈ 5.67 to 8.09 µM) |  |  |  |
| CC[C@H]1OC(=O)[C@H](C)[C@@H](O[C@H]2C[C@@](C)(OC)[C@@H](O)[C@H](C)O2)[C@H](C)[C@@H](O[C@@H]2O[C@H](C)C[C@H](N(C)C)[C@H]2O)[C@](C)(O)C[C@@H](C)CN(CCCNc2ccnc3cc(Cl)ccc23)[C@H](C)[C@@H](O)[C@]1(C)O [Example 21A, 9a-{3-[(7-Chloro-quinolin-4-yl)amino]propyl}-9-deoxo-9-dihydro-9a-aza-9a-homoerythromycin A] | < 0.1 | < 0.1 | < 0.1 |  |  |  |
| CC[C@H]1OC(=O)[C@H](C)[C@@H](O[C@H]2C[C@@](C)(OC)[C@@H](O)[C@H](C)O2)[C@H](C)[C@@H](O[C@@H]2O[C@H](C)C[C@H](N(C)C)[C@H]2O)[C@](C)(O)C[C@@H](C)CN(CCNCc2cccc3ccccc23)[C@H](C)[C@@H](O)[C@]1(C)O [Example 16, 9a-{2-[(Naphtalen-1-yl-methyl)amino]ethyl}-9-deoxo-9-dihydro-9a-aza-9a-homoerythromycin A] |  |  |  | A (X ≦ 100) | A (X ≦ 100) | B (100 < X ≦ 200) |
| CCC1OC(=O)C(C)C(O)C(C)C(O)C(C)(O)CC(C)CN(CCCNCc2cnc3ccccc3c2)C(C)C(O)C1(C)O (stereo not drawn) [Example 6, 9a-{3-[(Quinolin-3-yl-methyl)amino]propyl}-3-O-decladinosyl-5-O-dedesosaminyl-9-deoxo-9-dihydro-9a-aza-9a-homoerythromycin A] |  |  |  | D (1000 < X ≦ 2500) | C (200 < X ≦ 1000) | F (2800 < X ≦ 3500) |
| CC[C@H]1OC(=O)[C@H](C)[C@@H](O)[C@H](C)[C@@H](O[C@@H]2O[C@H](C)C[C@H](N(C)C)[C@H]2O)[C@](C)(O)C[C@@H](C)CN(CCCNCc2cccnc2)[C@H](C)[C@@H](O)[C@]1(C)O [Example 13, 9a-{3-[(Pyridine-3-yl-methyl)amino]propyl}-3-O-decladinosyl-9-deoxo-9-dihydro-9a-aza-9a-homoerythromycin A] |  |  |  | D (1000 < X ≦ 2500) | C (200 < X ≦ 1000) | G (3500 < X ≦ 5000) |
| CC[C@H]1OC(=O)[C@H](C)[C@@H](O[C@H]2C[C@@](C)(OC)[C@@H](O)[C@H](C)O2)[C@H](C)[C@@H](O[C@@H]2O[C@H](C)C[C@H](N(C)C)[C@H]2O)[C@](C)(O)C[C@@H](C)CN(CCCNC(=O)CCc2ccccc2)[C@H](C)[C@@H](O)[C@]1(C)O [Example 46, 9a-{3-[(3-Phenylpropanoyl)amino]propyl}-9a-aza-9-deoxo-9-dihydro-9a-homoerythromycin A] |  |  |  | C (200 < X ≦ 1000) | C (200 < X ≦ 1000) | C (200 < X ≦ 1000) |

Continued, in another order:

| IC50 (P. falciparum TM91C235) [µg/mL] | IC50 [1] [µg/mL] | IC50 [2] [µg/mL] | SMILES | IC50 TM91C235 (P. falciparum TM91C235) | IC50 W2 [1] | IC50 D6 [2] |
| --- | --- | --- | --- | --- | --- | --- |
| < 0.1 | 0.2 to 1 | 0.2 to 1 | CC[C@H]1OC(=O)[C@H](C)[C@@H](O[C@H]2C[C@@](C)(OC)[C@@H](O)[C@H](C)O2)[C@H](C)[C@@H](O[C@@H]2O[C@H](C)C[C@H](N(C)C)[C@H]2O)[C@](C)(O)C[C@@H](C)CN(CCCNC(=O)CCCc2ccccc2)[C@H](C)[C@@H](O)[C@]1(C)O [Example 28, 9a-{3-[(4-Phenylbutanoyl)amino]propyl}-9a-aza-9-deoxo-9-dihydro-9a-homoerythromycin A Formiate Salt] |  |  |  |
| 0.1 to 0.2 (≈ 0.129 to 0.258 µM) | 0.1 to 0.2 (≈ 0.129 to 0.258 µM) | 0.2 to 1 (≈ 0.258 to 1.29 µM) | CC[C@H]1OC(=O)[C@H](C)[C@@H](O)[C@H](C)[C@@H](O[C@@H]2O[C@H](C)C[C@H](N(C)C)[C@H]2O)[C@](C)(O)C[C@@H](C)CN(CCCNCc2ccc3ccccc3n2)[C@H](C)[C@@H](O)[C@]1(C)O [Example 2, 9a-{3-[(Quinolin-2-yl-methyl)amino]propyl}-3-O-decladinosyl-9-deoxo-9-dihydro-9a-aza-9a-homoerythromycin A] |  |  |  |
| < 0.1 | < 0.1 | 0.1 to 0.2 (≈ 0.107 to 0.214 µM) | CC[C@H]1OC(=O)[C@H](C)[C@@H](O[C@H]2C[C@@](C)(OC)[C@@H](O)[C@H](C)O2)[C@H](C)[C@@H](O[C@@H]2O[C@H](C)C[C@H](N(C)C)[C@H]2O)[C@](C)(O)C[C@@H](C)CN(CCCNCc2cnc3ccccc3c2)[C@H](C)[C@@H](O)[C@]1(C)O [Example 4, 9a-{3-[(Quinolin-3-yl-methyl)amino]propyl}-9-deoxo-9-dihydro-9a-aza-9a-homoerythromycin A] |  |  |  |
| < 0.1 | 0.2 to 1 | 0.1 to 0.2 | CC[C@H]1OC(=O)[C@H](C)[C@@H](O[C@H]2C[C@@](C)(OC)[C@@H](O)[C@H](C)O2)[C@H](C)[C@@H](O[C@@H]2O[C@H](C)C[C@H](N(C)C)[C@H]2O)[C@](C)(O)C[C@@H](C)CN(CCCNC(=O)Cc2ccc3ccccc3c2)[C@H](C)[C@@H](O)[C@]1(C)O [Example 33, 9a-{3-[(Naphtalen-2-yl-acetyl)amino]propyl}-9a-aza-9-deoxo-9-dihydro-9a-homoerythromycin A Formiate Salt] |  |  |  |
| 0.2 to 1 | 1 to 2.5 | 2.5 to 2.8 | CC[C@H]1OC(=O)[C@H](C)[C@@H](O[C@H]2C[C@@](C)(OC)[C@@H](O)[C@H](C)O2)[C@H](C)[C@@H](O[C@@H]2O[C@H](C)C[C@H](N(C)C)[C@H]2O)[C@](C)(O)C[C@@H](C)CN(CCCNC(=O)c2ocnc2C)[C@H](C)[C@@H](O)[C@]1(C)O [Example 34, 9a-(3-{[(4-Methyl-1,3-oxazol-5-yl)carbonyl]amino}propyl)-9a-aza-9-deoxo-9-dihydro-9a-homoerythromycin A Formiate Salt] |  |  |  |
